These results are taken from patent US20240180930A1, “CARBONIC ANHYDRASE 1 (CA1) INHIBITORS FOR THE TREATMENT OR PREVENTION OF MYELOPROLIFERATIVE DISORDERS AND OTHER HEMATOPOIETIC MALIGNANCIES, AND AS BIOMARKER OF MYELOPROLIFERATIVE DISORDERS AND OTHER HEMATOPOIETIC MALIGNANCIES” (COMMISSARIAT A L'ENERGIE ATOMIQUE ET AUX ENERGIES …, priority 2021, published 2024).

The structures appear in SMILES notation.

Assay [1] concerns CD34^+ cells from PV patients. As to the kind of experiment: BFU-E from CD34+ cells of PV patients treated with furosemide. Conditions: 5 and 20 μg/mL of furosemide, 100% = absence of furosemide. The assay is classed as cell-based, human. The method, then: FIG. 9: CA1 protein expression and furosemide treatment of CD34^+ cells from PV patients. (A) CA1 protein expression in human CD34^+ cells from control and JAK2^V617F PV patients (left) (n=4) and (B) CA1 expression level normalized against GAPDH expression level (right). (C) Effects of 5 and 20 μg/mL of furosemide on the percentages of BFU-E from CD34^+ cells of PV patients (n=4). 100% is used as percentage of BFU-E in the absence of furosemide (N.T.). N) Relative percentage of JAK2^V617F Variant Allele Frequency (VAF) in the BFU-E after treatment with 5 and 20 ug/mL of furosemide. 100% is used as percentage of VAF in the BFU-E in the absence of furosemide (N.T.). Data are mean +/−s.e.m. Significance was assessed using unpaired 2-tailed t test and two way ANOVA followed by post-hoc analysis (*<0.05, **<0.01, ***<0.001, ****<0.0001).
Whole-transcriptome RNA-seq on CD34+ cell from Patients. The patients were selected for their high JAK2^V617F variant allele frequency (from 60 to 100% VAF). […] The RNA integrity (RNA Integrity Score>7.0) was checked on the Agilent 2100 Bioanalyzer (Agilent) and quantity was determined using Qubit (Invitrogen). […]

Another assay deals with ICN1 leukemic cells. As to the kind of experiment: ICN1 leukemia in vivo survival. Details: species or system mouse. On the procedure:
ICN1 leukemia. Non-conditioned C57BL/6J (CD45.2) recipient mice were intravenously transplanted with 1.5×10^4 ICN1 leukemic cells in 100 uL of PBS. Seven days after transplantation, when blast cells are detected in the peripheral blood, recipient mice were daily treated or not by intravenous injection of furosemide at 20 mg/Kg.

Assay [2] has as its system mice transplanted with JAK2^V617F BM cells. In words: Single irradiated-leg mouse model of Polycythemia Vera, pharmacologic treatment. The assay is classed as in vivo. The text has this:
Mice. The conditional flexed Jak2^V617F KI mice (Hasan et al.; Blood 122, 1464-1477; 2013) were crossed with VavCre transgenic (TG) mice (Croker et al., SOCS3 Is a Critical Physiological Negative Regulator of G-CSF Signaling and Emergency Granulopoiesis. Immunity 20, 153-165 (2004)) to express the mutant Jak2. To easily evaluate allele burden in kinetic experiments, Jak2^V617F KI/VavCre mice were also crossed with UbiGFP TG mice in Gustave Roussy' animal facilities. For one-leg transplantation, F1 crossed B6.SJL/BoyJ (CD45.1)×C57BL/6J (CD45.2) mice were used as recipient mice. All mice were housed in a specific pathogen-free section at an animal facility of CEA/DRF/IBFJ/iRCM according to the institutional guidelines and French Ministry of Agriculture's regulations.
One leg irradiation and transplantation. Recipient mice were anesthetized with ketamine-xylazine and their leg was fixed on a tray with only the leg left towards the opposite side to their body. The tray was put in the radiation field of a GSRD1 radiation equipment. The mouse body was shielded from irradiation with lead plates and the leg was irradiated at 2×5 Gy with an interval of 17 h. Bone marrow (BM) cells (1×10^7) were intravenously transplanted into the irradiated mice 7 hours after the second irradiation. For barcode and shRNA experiments, 10,000 transduced Lin^−Scal^+cKit^+ (LSK) hematopoietic cells were intrafemorally transplanted into irradiated leg under Isoflurane anesthetic.
Blood analysis. Blood was collected and analyzed through a hemocytometer (CD3700, ABBOTT). The rest of blood was subjected to hemolysis by using an ammonium chloride solution ([…]). The hemolyzed blood were stained with antibodies against CD45.1 (A20) and CD45.2 (104) and analyzed through flow cytometry to examine blood chimerism.
BM cells (femur and tibia) of irradiated leg and of non-irradiated leg were harvested by flushing with 1 mL of PBS. After centrifugation, BM supernatants were collected and kept at -80° C. with anti-protease (ROCHE) for chemokine analyses. BM cells were suspended in PBS and splenocytes were also collected in PBS by crushing spleen on a 70 μm filter. Before hemolysis, cells were stained with Ter119 (TER-119) and CD71 (C2) antibodies for the examination of erythroid compartments. The rest of cells were hemolyzed and stained for analyses of granulocytes, hematopoictic progenitor cells (HPCs) and hematopoietic stem cells (HSCs) by using antibodies against CD45.1 (A20), CD45.2 (104), CD11b (M1/70), Gr-1 (RB6-8C5), c-Kit (2B6), Sca-1 (D7 or E13-161.7), CD34 (RAM34 or MEC14.7), CD16/32 (93), CD48 (HM48-1) and CD150 (TC15-12F12.2). […] For cell cycle analyses, stained HSPCs were permeabilized with Cytofix/Cytoperm buffer following manufacturer's instructions (BD Biosciences) and labelled with anti-Ki67 antibody (SolA15) and Hoechst 33342. All antibodies were purchased from BioLegend, eBioscience, or BD Biosciences. Flow cytometry analyses were performed through FACS Canto II (BD Biosciences) and LSR II (BD Biosciences), and cell sorting was conducted by using FACS Aria II (BD Biosciences). Analyses were performed with the FlowJo software (TRISTAR) and illustrated with the Prism7 software (GraphPad).
Pharmacologic treatment. Furosemide was purchased from Sigma (MKCF8657), dissolved in DMSO for stock solution (50 mg/mL) and diluted in PBS solution prior to use. […] Spironolactone (SIGMA) was prepared in water bottles at 250 mg/Kg to treat recipient mice as described (Rafael-Fortney et al., Early treatment with lisinopril and spironolactone preserves cardiac and skeletal muscle in duchenne muscular dystrophy mice »; Circulation, 2011; 124:582-8). Acetozolamide was purchased from SIGMA (A6011), dissolved in PBS and solubilized with NaOH (35%) until complete dissolution of the product.

As to `NS(=O)(=O)c1cc(C(=O)O)c(NCc2ccco2)cc1Cl` [Furosemide, 4-chloro-2-(furan-2-ylmethylamino)-5-sulfamoylbenzoic acid], the “JAK2^V617F variant allele frequency in the BFU-E” value in assay [1] is listed as “decreased”. The “percentages of BFU-E” value in assay [1] (n=4) is given as “decreased”. Besides, the survival rate entry is reported as “improved survival rate is also reproduced” in the assay on ICN1 leukemic cells (furosemide 20 mg/Kg daily intravenous, starting 1 week after transplantation of 1.5×10^4 ICN1 leukemic cells (FIG. 7)) and “improved” in assay [2] (furosemide 20 mg/Kg daily intravenous, starting 2 weeks after transplantation (FIG. 4i)). The “in vivo leukemia progression” value with ICN1 leukemic cells (furosemide daily, starting 1 week after transplantation (FIG. 7)) is reported as “Slowing”. Further, the “therapeutic effect (blood chimerism, spleen weight)” value in assay [2] (furosemide 5 mg/Kg daily, starting two weeks after transplantation, compared with 20 mg/Kg (FIG. 8)) is on record as “therapeutic effect similar to the one obtained with 20 mg/Kg”. Moreover, the “JAK2^V617F cell burden in blood” value in assay [2] (furosemide 20 mg/Kg daily intravenous, starting 2 weeks after transplantation of JAK2^V617F BM cells (FIG. 4g)) is “decreased”. For the same compound, the spleen weight entry is listed as “decreased” in assay [2] (furosemide 20 mg/Kg daily intravenous, starting 2 weeks after transplantation, 8 weeks later (FIG. 4h)) and “decreased” in assay [2] (furosemide daily after PV establishment, starting 10 weeks after transplantation (FIG. 4l)). In assay [2] (furosemide 20 mg/Kg daily intravenous, starting 2 weeks after transplantation, hematocrit and red blood cells count), the PV blood parameters result was “decreased”. The “JAK2^V617F LT-HSC contribution to the LT-HSC compartment” value in assay [2] (furosemide after PV establishment, before treatment (10 weeks) vs end of treatment (31 weeks) (FIG. 4m)) was “significant decrease”. Moreover, in assay [2] (furosemide daily after PV establishment, starting 10 weeks after transplantation), the survival result was “survival of the treated mice”. Besides, the “blood JAK2^V617F cell burden” value in assay [2] (furosemide daily after PV establishment, starting 10 weeks after transplantation (FIG. 4j)) is “rapid, stable and Furosemide-dependent decrease”. Besides, the hematocrit result in assay [2] (furosemide daily after PV establishment, starting 10 weeks after transplantation (FIG. 4k)) is “decreased”.
For `CC(=O)S[C@@H]1CC2=CC(=O)CC[C@]2(C)[C@H]2CC[C@@]3(C)[C@@H](CC[C@@]34CCC(=O)O4)[C@H]12` [Spironolactone], the PV associated symptoms result in assay [2] (spironolactone 250 mg/Kg in water bottles, starting 2 weeks after transplantation) is given as “no effect”. The “survival of mice with PV” value in assay [2] (spironolactone 250 mg/Kg in water bottles, starting 2 weeks after transplantation (FIG. 5d)) was “no effect”.
